Article PMC7831505, “Monosubstituted Acetophenone Thiosemicarbazones as Potent Inhibitors of Tyrosinase: Synthesis, Inhibitory Studies, and Molecular Docking” (Pharmaceuticals, 2021)
Values joined by “and” are separate entries in the source; they are usually repeats but may differ in a detail not shown here. Equal entries are not always repeated.

Tests used:
[1] = system: B16F10 murine melanoma cells; assay: Measurement of melanin production in α-MSH-stimulated cells; format: cell-based; conditions: for IC50: B16F10 cells stimulated with α-MSH 100 nM, 48 h with inhibitor, absorbance 405 nm, read-out: Inhibition of Melanin Production IC50
Description: In the presence of α-MSH, the cells were treated with the inhibitors after 24 h. […] Kojic acid was used as a positive control, and dimethyl sulfoxide (DMSO) was used as a solvent control. Melanin content was measured spectrophotometrically at 405 nm. […] Cells were maintained in 5% CO2 at 37 °C. […] The cells were seeded into a 96-well plate (5 × 10^3 cells/well) and stimulated with α-MSH (100 nM, Sigma-Aldrich, Taufkirchen, Germany). […] After 48 h of incubation with inhibitors, cells were solubilized in 1 N sodium hydroxide (1 N, 60 °C, 2 h). In order to measure melanin content, absorbance was measured (λ = 405 nm) using a microplate reader.

[2] = system: B16F10 murine melanoma cells; assay: Cell proliferation assay (MTT); format: cell-based; conditions: read-out: Inhibition of Cell Proliferation IC50
Description: In the presence of α-MSH, the cells were treated with the inhibitors after 24 h. […] Kojic acid was used as a positive control, and dimethyl sulfoxide (DMSO) was used as a solvent control. Melanin content was measured spectrophotometrically at 405 nm. […] Cells were maintained in 5% CO2 at 37 °C. Cell viability was estimated using the MTT colorimetric assay as described in our previous papers and by Bellei et al.. […] Kojic acid and DMSO were used as controls. MTT was added to wells (0.625 mg/mL, Sigma-Aldrich, Taufkirchen, Germany) for the last 4 h. Then, lysing buffer was added to dissolve insoluble formazan. The absorbance was measured (λ = 570 nm) using a Thermo Lab Multiscan RC microplate reader.

mushroom tyrosinase [3] = assay: Kinetic studies of tyrosinase inhibition (Lineweaver-Burk and secondary plots); format: biochemical, Agaricus bisporus; conditions: for Inhibition Mechanism / Inhibition Type: diphenolase activity of mushroom tyrosinase, L-DOPA; for Inhibition Type: Lineweaver-Burk plot; for Ki: n = 3, secondary plots, read-out: Ki ± Standard Error (inhibition constant for enzyme-inhibitor complex)
Description: The kinetics of the interaction between TSCs 1–12 and mushroom tyrosinase were determined. […] The inhibition type was determined through creation of the Lineweaver–Burk plot (double reciprocal plot), which enables easier analysis of the Michaelis–Menten plot. […] Inhibition constants Ki were determined from the secondary plots of km (Michaelis constant) versus the inhibitor concentration for competitive inhibition and by the secondary plots of the slope of the lines from the Lineweaver–Burk plot as a function of the inhibitor concentration for mixed-type inhibition. […] They were all competitive inhibitors, whereas meta- and ortho-substituted compounds were mixed inhibitors. The inhibition mechanism for the investigated compounds was also tested. […] L-DOPA was dissolved in a 0.15 mM phosphoric (V) acid solution to a concentration of 5 mM. […] The isolated tyrosinase solution (0.5 mg/mL, 40,000 U/mg) was diluted 10 times in sodium phosphate buffer (0,1 M, pH 6.8). […] The optimal ionic strength and pH for tyrosinase activity were provided by 0.1 M sodium phosphate buffer (pH 6.8). […] The control sample contained the same reagents as the test samples except for the substrate. […] (b) Secondary plot of km versus inhibitor concentrations for determination of Ki for competitive inhibition. (c) Plot to determine the inhibitory mechanism.

mushroom tyrosinase [4] = assay: Tyrosinase enzymatic assay (diphenolase activity, dose-response IC50); format: biochemical, Agaricus bisporus; conditions: for IC50: L-DOPA 1 mM as substrate, pH 6.8, 25 °C, n = 3; for Ratio of IC50 of Kojic Acid to IC50 of TSC: mushroom tyrosinase diphenolase activity
Description: In order to determine the IC50, dose–response analysis for all investigated compounds was performed. […] The enzyme was isolated from Agaricus bisporus, purchased from a local supplier in Wroclaw, and prepared as described in our previous papers, according to known procedures reported in the literature. The full description of enzyme preparation is included in the Supplementary Materials (Section 2). […] L-DOPA was dissolved in a 0.15 mM phosphoric (V) acid solution to a concentration of 5 mM. […] The isolated tyrosinase solution (0.5 mg/mL, 40,000 U/mg) was diluted 10 times in sodium phosphate buffer (0,1 M, pH 6.8). […] The optimal ionic strength and pH for tyrosinase activity were provided by 0.1 M sodium phosphate buffer (pH 6.8). […] The control sample contained the same reagents as the test samples except for the substrate. […] The concentration of L-3,4-dihydroxyphenylalanine (L-DOPA) was 1 mM in all the cases.

IC50 ([1]; Mus musculus, B16-F10, 48 h) [µM] | IC50 ([2]; Mus musculus, B16-F10, 48 h) [µM] | Inhibition Mechanism (mushroom tyrosinase [3]) | Inhibition Type (mushroom tyrosinase [3]) | IC50 (mushroom tyrosinase [4]) [µM] | Ratio of IC50 of Kojic Acid to IC50 of TSC (mushroom tyrosinase [4]) | Inhibition Type (mushroom tyrosinase [3]; listed as Compound 11) | Ki (mushroom tyrosinase [3]) [µM] | IC50 [1] [µM] | Ratio of IC50 for the inhibition of B16F10 cell proliferation to IC50 for the inhibition of melanin production ([1]; B16F10 cells) | Inhibition Type (mushroom tyrosinase [3]; listed as Compound 9) | Inhibition Type (mushroom tyrosinase [3]; listed as Compound 3) | IC50 ([2]; 48 h) [µM] | Compound
– | 137 | reversible | mixed | – | 12.4 | – | – | – | – | – | – | – | C/C(=N\NC(N)=S)c1ccc([N+](=O)[O-])cc1 [TSC 12, (E)-4’-Nitroacetophenone thiosemicarbazone]
– | – | – | – | 1.5 | 13.2 | – | – | – | – | – | – | – | C/C(=N/NC(N)=S)c1ccccc1 [Acetophenone TSC, acetophenone thiosemicarbazones]
69.5 | 103 | reversible | mixed-type | 0.95 | 20 and 20.9 | – | 0.6 ± 0.08 | – | – | – | – | – | C/C(=N\NC(N)=S)c1cccc(O)c1 [TSC 8, (E)-3’-Hydroxyacetophenone thiosemicarbazone]
88.9 | 150 | reversible | mixed-type | 0.65 | 30.6 | – | 0.6 ± 0.1 | – | – | – | – | – | C/C(=N\NC(N)=S)c1cccc(N)c1 [TSC 5, (E)-3’-Aminoacetophenone thiosemicarbazone]
< 30 | 115 | reversible | competitive | 0.8 | 20 and 24.9 | – | 0.6 ± 0.06 | 25.2 | 4.6 | competitively | – | – | C/C(=N\NC(N)=S)c1ccc(O)cc1 [TSC 9, (E)-4’-Hydroxyacetophenone thiosemicarbazone]
– | 20.3 | reversible | competitive | 1.8 | 11.1 | – | 0.6 ± 0.01 | – | – | – | competitively | – | COc1ccc(/C(C)=N/NC(N)=S)cc1 [TSC 3, (E)-4’-Methoxyacetophenone thiosemicarbazone]
208 | – | reversible | mixed-type | 11.3 | 1.8 | – | 8 ± 0.9 | – | – | – | – | – | CC(=NNC(N)=S)c1ccccc1N [TSC 4, 2’-aminoacetophenone thiosemicarbazone]
139 | 155 | reversible | competitively | – | – | – | 0.2 ± 0.06 | – | – | – | – | – | C/C(=N\NC(N)=S)c1ccc(N)cc1 [TSC 6, (E)-4’-Aminoacetophenone thiosemicarbazone]

Continued, compound first:

Compound | IC50 ([1]; Mus musculus, B16-F10, 48 h) [µM] | IC50 ([2]; Mus musculus, B16-F10, 48 h) [µM] | Inhibition Mechanism (mushroom tyrosinase [3]) | Inhibition Type (mushroom tyrosinase [3]) | IC50 (mushroom tyrosinase [4]) [µM] | Ratio of IC50 of Kojic Acid to IC50 of TSC (mushroom tyrosinase [4]) | Inhibition Type (mushroom tyrosinase [3]; listed as Compound 11) | Ki (mushroom tyrosinase [3]) [µM] | IC50 [1] [µM] | Ratio of IC50 for the inhibition of B16F10 cell proliferation to IC50 for the inhibition of melanin production ([1]; B16F10 cells) | Inhibition Type (mushroom tyrosinase [3]; listed as Compound 9) | Inhibition Type (mushroom tyrosinase [3]; listed as Compound 3) | IC50 ([2]; 48 h) [µM]
O=c1cc(CO)occ1O [Kojic acid, reference compound] | 114 | 153 | reversible | mixed | – | – | – | – | – | – | – | – | –
C/C(=N\NC(N)=S)c1cccc([N+](=O)[O-])c1 [TSC 11, (E)-3’-Nitroacetophenone thiosemicarbazone] | 44 | 44.8 | reversible | – | 14.2 | 1.4 | competitively | 0.4 ± 0.02 | – | – | – | – | –
CC(=NNC(N)=S)c1ccccc1O [TSC 7, 2’-hydroxyacetophenone thiosemicarbazone] | < 30 | 37.3 | reversible | mixed-type | 1.2 | 16.5 | – | 0.7 ± 0.1 | 21.7 | – | – | – | –
NC(=S)N/N=C\c1ccccc1 [Benzaldehyde TSC, benzaldehyde thiosemicarbazone, reference compound] | – | – | – | – | 3.4 | 5.6 | – | – | – | – | – | – | –
COc1cccc(/C(C)=N/NC(N)=S)c1 [TSC 2, (E)-3’-Methoxyacetophenone thiosemicarbazone] | – | 22.4 | reversible | mixed-type | 1.9 | 10.5 | – | 1 ± 0.1 | – | – | – | – | –
C[S+](C)[O-] [DMSO, dimethyl sulfoxide] | – | – | – | – | – | – | – | – | 8020 | – | – | – | 166
COc1ccccc1C(C)=NNC(N)=S [TSC 1, 2’-methoxyacetophenone thiosemicarbazone] | 39.2 | 45.2 | reversible | mixed-type | 12.2 | 1.6 | – | 5 ± 1.4 | – | – | – | – | –
C/C(=N\NC(N)=S)c1ccccc1[N+](=O)[O-] [TSC 10, (E)-2’-Nitroacetophenone thiosemicarbazone] | 77.8 | 93.2 | reversible | mixed-type | > 150 | 0.1 | – | 8.6 ± 0.5 | – | – | – | – | –
